Key:
[1] = Crossing of the epidermis after topical application; assay type: in vivo, human; conditions: humans as well as zebrafish
Source text: As described herein, photo-sensitive TrpA1 agonists can be bioavailable. […] In some embodiments, a photo-sensitive TrpA1 agonist can be bioavailable when administered systemically. […] In some embodiments, oral administration of a photo-sensitive TrpA1 agonist can be considered for any method described herein.
Photo-sensitive TrpA1 agonists described herein can be administered by any delivery method known in the art, including but not limited to, injection; parenteral, intravenous, intramuscular, subcutaneous, transdermal, airway (aerosol), pulmonary, direct application, microsurgery, endoscopic surgery, topically, orally, vaginally and/or by contact with the gastro-intestinal lumen. […] This would agonist to all, or at least a variety of tissues, depending e.g. upon design/modification of the agonist to limit or expand systemic bioavailability such that electromagnetic radiation applied to any desired location would be expected to activate neuronal activity at the site of irradiation. In some embodiments, the photo-sensitive TrpA1 agonist can be administered systemically. In some embodiments, the photo-sensitive TrpA1 agonist can be administered locally.

[2] = tested on: larvae and adult zebrafish; test: Long-term toxicity testing in zebrafish; assay type: in vivo
Procedure: Optovin is a rhodanine-containing small molecule with no previously annotated biological activity (FIG. 1D). […] Motor behavior in optovin-treated animals is elicited by radiation stimulus intensitites greater than 1.6 μW/mm^2 (FIG. 1G). […] To determine the long-term effects of optovin exposure on development, behavior and survival, the development, behavior and survival of larvae and adult zebrafish exposed to optovin (10 μM) for 96 hours were analyzed. […] Thus, optovin is a novel behavior-modifying compound that causes rapid and reversible motor excitation in response to violet light stimuli.
To determine the long-term effects of optovin exposure on development, behavior and survival, the development, behavior and survival of larvae (n=150) and adult zebrafish (n=2) exposed to 10 μM optovin for 96 hours was analyzed.

[3] = molecular target: T1, human TrpA1 (hTrpA1) (Homo sapiens, UniProt O75762); test: Whole-cell patch clamp in transfected HEK293T cells; assay type: cell-based; conditions: 10 μM, following photo-stimulation (405 nm)
T1 construct: expressed in transfected cells; host or cells: HEK293 / HEK293T
T1 sequence (O75762 whole entry): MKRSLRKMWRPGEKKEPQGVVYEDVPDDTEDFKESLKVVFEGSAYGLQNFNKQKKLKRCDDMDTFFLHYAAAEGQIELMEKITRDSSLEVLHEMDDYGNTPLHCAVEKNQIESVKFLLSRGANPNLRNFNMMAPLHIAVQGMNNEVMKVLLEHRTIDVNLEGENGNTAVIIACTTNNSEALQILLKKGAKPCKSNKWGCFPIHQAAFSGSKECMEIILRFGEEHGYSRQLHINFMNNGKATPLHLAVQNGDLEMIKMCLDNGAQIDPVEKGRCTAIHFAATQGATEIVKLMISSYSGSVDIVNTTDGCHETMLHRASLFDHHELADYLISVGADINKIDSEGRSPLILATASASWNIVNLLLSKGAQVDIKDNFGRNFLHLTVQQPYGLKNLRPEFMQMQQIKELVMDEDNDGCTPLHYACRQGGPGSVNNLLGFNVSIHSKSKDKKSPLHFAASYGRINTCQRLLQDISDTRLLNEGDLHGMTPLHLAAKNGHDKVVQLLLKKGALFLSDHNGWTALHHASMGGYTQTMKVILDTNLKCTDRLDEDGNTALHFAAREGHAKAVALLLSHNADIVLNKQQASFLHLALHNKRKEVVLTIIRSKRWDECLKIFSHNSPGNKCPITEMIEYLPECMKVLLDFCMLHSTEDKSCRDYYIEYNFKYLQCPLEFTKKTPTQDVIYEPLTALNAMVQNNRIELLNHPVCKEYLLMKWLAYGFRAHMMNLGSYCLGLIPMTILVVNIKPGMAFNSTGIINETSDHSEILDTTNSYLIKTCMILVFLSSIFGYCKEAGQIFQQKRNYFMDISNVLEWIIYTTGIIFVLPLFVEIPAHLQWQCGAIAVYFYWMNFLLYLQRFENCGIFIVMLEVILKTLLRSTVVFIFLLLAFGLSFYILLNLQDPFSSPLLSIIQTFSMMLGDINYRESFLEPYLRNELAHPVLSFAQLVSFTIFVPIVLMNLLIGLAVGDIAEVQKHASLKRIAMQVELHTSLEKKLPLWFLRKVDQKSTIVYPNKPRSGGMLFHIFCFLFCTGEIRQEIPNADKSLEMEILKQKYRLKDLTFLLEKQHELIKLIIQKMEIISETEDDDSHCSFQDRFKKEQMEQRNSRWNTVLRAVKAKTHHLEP
Procedure: (§1) To determine if TRPA1 is sufficient for optovin activity, current density amplitudes were analyzed via whole-cell patch clamping in HEK293T cells transfected with the human TrpA1 (hTrpA1) gene.
HEK293 cells were plated upon poly-lysine coated cover slips and transiently transfected with human TRPA1. Voltage clamp recordings were made in the whole-cell configuration 48 hours after transfection using glass electrodes with 2-4M ohm resistance when filled with (in mM) 140 CsCl, 2 Mg2ATP3, 2 MgCl, 5 EGTA, and 10 HEPES (pH adjusted to 7.2 with CsOH) and while bathed at room temperature in extracellular solution containing (in mM) 150 NaCl, 5.4 KCl, 1.8 CaCl2, 1 MgCl, and 5 mM HEPES (pH adjusted to 7.4 with NaOH). A voltage ramp protocol from −80 mV to +80 mV over 400 ms was repeated every 5 seconds during the following conditions: while the cell was dialyzed by the pipette, followed by at least 60 seconds of illumination with 405 nm light, after which optovin (10 μM) containing extracellular solution was perfused into the bath, followed by 1 minute of illumination. Current elicited at holding potentials of +/−70 mV were used to characterize TRPA1 activation.

[4] = tested on: adult zebrafish; test: 405 nm laser illumination of adult and spinalized zebrafish; assay type: in vivo
Procedure: Optovin's capacity to function in intact adult animals will impact its suitability for future clinical and research applications. Thus, the effects of 405 nm laser illumination on optovin-treated adult zebrafish were analyzed. […] To determine if fin contraction was voluntary or involuntary, the experiment was repeated using spinalized preparations. Optical control of dorsal fin contraction was preserved in spinalized animals treated with optovin (data not shown). Furthermore, carefully controlled laser illumination of specific regions along the body of spinalized zebrafish produced specific dorsal, ventral, and lateral tail movements reminiscent of those used by intact fish during swimming (data not shown). Because zebrafish TRPA1 is primarily expressed in sensory neurons, these contractions and swimming behaviors likely occur via activation of spinal reflex arcs.
Adult zebrafish (0.5-1.5 years) were briefly anesthetized in ice water and quickly decapitated with a sharp razor blade. Spinalized preparations were incubated in optovin (50 μM) for 1-2 min prior to testing with laser light stimuli (405 nm, 400 μW mm−2).

[5] = molecular target: T2, hTRPA1 (Homo sapiens, UniProt O75762); test: Calcium imaging of transfected HEK cells; assay type: cell-based
T2 construct: expressed in transfected cells; host or cells: HEK293 / HEK293T
T2 sequence (O75762 whole entry): as above
Procedure: as §1
HEK293 cells were plated onto poly-lysine-coated glass bottom culture dishes (MatTek Corp), and grown in Dulbecco's Modified Eagle's Medium (DMEM, Sigma) supplemented with 10% fetal bovine serum and 100 U/mL penicillin and 100 μg/ml streptomycin. After 24 hrs, cells were transfected, according to manufacturer's instructions, in Opti-MEM media, using 4 μl lipofectamine 2000 (Invitrogen), 0.5 ug EGFP in pcDNA, and 0.3 μg TrpA1 DNA per dish. Media was replaced after 2 hours, and cells were cultured for an additional 17 hours. As previously described for neurons, HEK cells were washed with assay buffer (HBSS Gibco 14025, supplemented with 9 mM HEPES, 11 mM D-glucose, 0.1% fatty-acid free BSA, pH 7.3) and incubated for 1 h with 2 μM Fura2-AM (Invitrogen) with 0.2% pluronic (Invitrogen) in assay buffer in the dark at room temperature. The cells were then washed with assay buffer and allowed to equilibrate at room temperature for 30 min prior to imaging. At the start of the imaging session for each dish, cells were replaced with DMSO-assay buffer. After 50 seconds of imaging, assay buffer was aspirated by hand, and replaced with 100 μM optovin dissolved in the DMSO-assay buffer solution. Each dish of HEK cells was imaged for a total of 3 minutes.
Cells were transfected with the hTRPA1^44, TRPA1 C621S^44, hTRPA1 C633S^45 and hTRPA1 C633S, C856S^45 plasmids as described.

Cc1cc(/C=C2/SC(=S)NC2=O)c(C)n1-c1cccnc1 [optovin]
crossing the epidermis to reach underlying muscles at an effective concentration [1]: able to cross the epidermis | differences in appearance, touch response, heart rate, fin movements, morphology or percentage survival vs untreated ([2]; 10 μM for 96 hours, larvae and adult zebrafish): No differences were identified | survival rates ([2]; 10 μM, larval or adult zebrafish): does not affect survival rates | signs of toxicity ([2]; after 48 hours of treatment): No signs of toxicity were observed | current density amplitudes in response to positive voltage steps [3]: significantly increased | dorsal fin response to 405 nm laser illumination ([4]; intact adult zebrafish): rapid and reversible contraction of the fin | optical control of dorsal fin contraction ([4]; spinalized animals): preserved | change in fluorescence in response to light and optovin ([5]; WT channels): strong change in fluorescence | effect of catalase and superoxide dismutase on optovin's effects ([5]; hTRPA1 transfected HEK cells): Neither catalase nor superoxide dismutase reduce optovin's effects | calcium levels ([5]; optovin and light, HEK cells transfected with hTrpA1): elevated calcium levels were observed

— patent US9486447B2, “Compositions and methods for controlling neuronal excitation” (The General Hospital Corporation, priority 2011, dated 2016)
